Results as given in PMC8539695, “Promising Natural Compounds against Flavivirus Proteases: Citrus Flavonoids Hesperetin and Hesperidin” (Plants, 2021).

What was measured:
WNV NS2B/NS3^pro [1] = molecular target: T1, WNV NS2B/NS3^pro (West Nile virus, UniProt P06935); assay: biochemical; assay type: binding
T1 construct: tryptophan residues in the NS2B cofactor domain and in the NS3 protease domain; inferred from Ni-NTA purification and the pET-15b vector; made in house; host or cells: E. coli Lemo (DE3)
T1 sequence (P06935 1502-1679 limits assumed): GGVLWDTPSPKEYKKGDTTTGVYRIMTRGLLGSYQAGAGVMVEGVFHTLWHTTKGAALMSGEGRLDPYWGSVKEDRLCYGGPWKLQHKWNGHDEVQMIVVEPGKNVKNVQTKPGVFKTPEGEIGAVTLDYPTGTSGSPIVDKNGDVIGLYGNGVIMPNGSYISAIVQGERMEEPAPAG
T1 sequence (P06935 1424-1463 partner limits assumed): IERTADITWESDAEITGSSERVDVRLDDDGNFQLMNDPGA

DENV2 NS2B/NS3^pro [2] = molecular target: T2, DENV2 NS2B/NS3^pro (Dengue virus type 2, UniProt P14340); assay: biochemical; assay type: binding
T2 construct: tryptophan residues in the NS2B cofactor domain and in the NS3 protease domain; inferred from Ni-NTA purification and the pET-15b vector; made in house; host or cells: E. coli Lemo (DE3)
T2 sequence (P14340 with tags, fused parts or gaps I1442G/L1443G/I1444G/R1445G/T1446S/DEL1448-1472/K1473G/Q1474G/R1475G): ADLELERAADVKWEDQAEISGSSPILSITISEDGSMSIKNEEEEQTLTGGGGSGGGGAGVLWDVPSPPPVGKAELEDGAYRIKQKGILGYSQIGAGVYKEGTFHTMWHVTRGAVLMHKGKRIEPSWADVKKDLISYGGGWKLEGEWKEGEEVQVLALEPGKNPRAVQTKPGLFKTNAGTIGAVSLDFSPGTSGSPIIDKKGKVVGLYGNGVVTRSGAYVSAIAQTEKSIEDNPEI

YFV NS2B/NS3^pro [3] = molecular target: T3, YFV NS2B/NS3^pro (Yellow fever virus, UniProt Q1X881); assay: biochemical; assay type: binding
T3 sequence (Q1X881 1485-1665 limits assumed): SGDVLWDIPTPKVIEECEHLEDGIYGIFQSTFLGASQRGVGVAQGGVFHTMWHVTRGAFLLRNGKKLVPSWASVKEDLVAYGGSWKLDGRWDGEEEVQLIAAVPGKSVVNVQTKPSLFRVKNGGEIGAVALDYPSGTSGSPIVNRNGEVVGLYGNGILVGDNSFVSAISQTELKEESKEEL
T3 sequence (Q1X881 1407-1446 partner limits assumed): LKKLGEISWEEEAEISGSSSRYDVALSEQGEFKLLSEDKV

YFV NS2B/NS3^pro [4] = molecular target: T3, YFV NS2B/NS3^pro; assay: biochemical; settings: for inhibition at 10 µM: read-out: Inhibition of protease activity, primary inhibition test
WNV NS2B/NS3^pro [5] = molecular target: T1, WNV NS2B/NS3^pro; assay: biochemical; settings: for inhibition at 10 µM: read-out: Inhibition of protease activity, primary inhibition test
DENV2 NS2B/NS3^pro [6] = molecular target: T2, DENV2 NS2B/NS3^pro; assay: biochemical; assay type: biochemical
ZIKV NS2B/NS3^pro [7] = system: ZIKV NS2B/NS3^pro; design: method as in PMID 33661906; settings: ZIKV NS2B/NS3pro, cited from earlier work
ZIKV NS2B/NS3^pro [8] = molecular target: ZIKV NS2B/NS3^pro; design: method as in PMID 33661906; settings: ZIKV NS2B/NS3pro, value ± STD; cited from earlier work

Compound	Kd (WNV NS2B/NS3^pro [1])	Red edge excitation shift (REES) of the protease maximum fluorescence peak (WNV NS2B/NS3^pro [1])	Kd (DENV2 NS2B/NS3^pro [2])	Red edge excitation shift (REES) of the protease maximum fluorescence peak (DENV2 NS2B/NS3^pro [2])	Kd (YFV NS2B/NS3^pro [3])	Red edge excitation shift (REES) of the protease maximum fluorescence peak (YFV NS2B/NS3^pro [3])	Concentration that inhibited 100% of the protease activity (YFV NS2B/NS3^pro [4])	IC50 (YFV NS2B/NS3^pro [4])	Inhibition Mode (YFV NS2B/NS3^pro [4])	LE (ligand efficiency) (YFV NS2B/NS3^pro [4])	inhibition at 10 µM (YFV NS2B/NS3^pro [4])	Concentration that inhibited 100% of the protease activity (WNV NS2B/NS3^pro [5])	IC50 (WNV NS2B/NS3^pro [5])	Inhibition Mode (WNV NS2B/NS3^pro [5])	LE (ligand efficiency) (WNV NS2B/NS3^pro [5])	inhibition at 10 µM (WNV NS2B/NS3^pro [5])	Concentration that inhibited 100% of the protease activity (DENV2 NS2B/NS3^pro [6])	IC50 (DENV2 NS2B/NS3^pro [6])	Inhibition Mode (DENV2 NS2B/NS3^pro [6])	LE (ligand efficiency) (DENV2 NS2B/NS3^pro [6])	other results
COc1ccc(C2CC(=O)c3c(O)cc(OC4O[C@H](CO[C@@H]5O[C@@H](C)[C@H](O)[C@@H](O)[C@H]5O)[C@@H](O)[C@H](O)[C@H]4O)cc3O2)cc1O (some centres unmarked) [HSD, 3′,5,7-trihydroxy-4′-methoxy-flavanone-7-rhamnoglucoside]	19.5 ± 2.8 µM	no shift	20.9 ± 2.4 µM	no shift	29.5 ± 2.8 µM	no shift	140 µM	67.7 ± 7.5 µM	noncompetitive	0.13	~30%	120 µM	50.7 ± 8.3 µM	noncompetitive	0.14	~30%	140 µM	55.7 ± 2.5 µM	noncompetitive	0.14	–
COc1ccc(C2CC(=O)c3c(O)cc(O)cc3O2)cc1O (centres unmarked) [HST, 3′,5,7-trihydroxy-4′-methoxyflavanone]	13.5 ± 2 µM	15 nm	18.7 ± 2.7 µM	11 nm	12.3 ± 2.2 µM	22 nm	80 µM	2.04 µM	noncompetitive	0.36	~80%	80 µM	4.27 µM	noncompetitive	0.34	~70%	140 µM	4.7 ± 0.8 µM	noncompetitive	0.34	IC50 (ZIKV NS2B/NS3^pro [7]; value ± STD): 12.6 ± 1.3 µM; Inhibition Mode (ZIKV NS2B/NS3^pro [7]): noncompetitive; pIC50 (ZIKV NS2B/NS3^pro [7]): 4.90; Kd (ZIKV NS2B/NS3^pro [8]): 17.8 ± 2.9 µM
